Experimental data: US20120029187A1, “HALOALKYLSULFONANILIDE DERIVATIVE” (Nissan Chemical Industries, Ltd., priority 2009, published 2012)

Key:
Type in all cases: in vivo
bulrush [1] = test: Test Example 2: herbicidal effects during the vegetation period under submerged conditions; conditions: treatment during the vegetation period under submerged conditions; dose 2.52 g/a
Method: (§1) Test on the Herbicidal Effects on Weeds During the Vegetation Period Under Submerged Conditions
(§2) Alluvial soil was put in 1/30000-are styrol cups and admixed with water so that it was submerged at a depth of 4 cm. In each cup, seeds of barnyardgrass, bulrush and ducksalad were sown together, and the cups were placed in a greenhouse at 25 to 30° C. to grow the plants. When the barnyardgrass, bulrush and ducksalad reached the 1- or 2-leaf stage, emulsifiable concentrates containing compounds of the present invention formulated in accordance with Formulation Example 2 were applied to the water surfaces at predetermined doses after diluted with water. Three weeks after the application, the herbicidal effects against various plants were determined on the same evaluation scale as in Test Example 1.
(§3) A: barnyardgrass, B: bulrush, C: ducksalad, D: large crabgrass, E: giant foxtail, F: wild oat, G: water foxtail, H: Italian ryegrass, I: velvetleaf, J: common ragweed, K: redroot pigweed, L: common lambsquater, M: posumbu knotweed, N: common chickweed, O: beadstraw, a: transplanted rice, b: corn, c: soybean, d: direct-seeded rice, e: wheat, f: sugar beet.
(§4) The doses (g/a) represents the amounts in g per 1 are (a) applied after adjustment of concentration adjustment.

ducksalad [2] = test: as above; conditions: treatment during the vegetation period under submerged conditions; dose 2.52 g/a
Method: as §1, §2, §3, §4

barnyardgrass [3] = test: as above; conditions: treatment during the vegetation period under submerged conditions; dose 2.52 g/a
Method: as §1, §2, §3, §4

bulrush [4] = test: Test Example 1: herbicidal effects in preemergence treatment under submerged conditions; conditions: dose 2.52 g/a
Source text: (§5) Test on the Herbicidal Effects in Preemergence Treatment on Weeds Under Submerged Conditions
(§6) Alluvial soil was put in 1/30000-are styrol cups and admixed with water so that it was submerged at a depth of 4 cm. In each cup, seeds of barnyardgrass, bulrush and ducksalad were sown together, and rice seedlings at the 2.5-leaf stage were transplanted. On the same day as the seeding, emulsifiable concentrates containing compounds of the present invention formulated in accordance with Formulation Example 2 were applied to the water surfaces at predetermined doses after diluted with water. The cups were placed in a greenhouse at 25 to 30° C. to grow the plants. Three weeks after the application, the herbicidal effects against various plants were determined on the following evaluation scale.
(§7) 5 mortality of 90% or above (nearly complete death)
(§8) 4 mortality of at least 70% and less than 90%
(§9) 3 mortality of at least 40% and less than 70%
(§10) 2 mortality of at least 20% and less than 40%
(§11) 1 mortality of at least 5% and less than 20%
(§12) 0 mortality of less than 5% (almost ineffective)
as §3, §4

ducksalad [5] = test: as above; conditions: dose 2.52 g/a
Source text: as §5, §6, §7, §8, §9, §10, §11, §12, §3, §4

barnyardgrass [6] = test: as above; conditions: dose 2.52 g/a
Source text: as §5, §6, §7, §8, §9, §10, §11, §12, §3, §4

large crabgrass [7] = test: Test Example 3: herbicidal effects in soil treatment; conditions: dose 3.2 g/a
Source text: (§13) Test on the Herbicidal Effects in Soil Treatment
(§14) Sterilized diluvial soil was put in plastic boxes with a length of 21 cm, a width of 13 cm and a depth of 7 cm, and seeds of barnyardgrass, large crabgrass, giant foxtail, wild oat, blackgrass, velvetleaf, common ragweed, redroot pigweed, common lambsquater, posumbu knotweed, common chickweed corn, soybean, rice, wheat and sugar beet were sown in spots and covered with an about 1.5 cm-thick soil layer. Emulsifiable concentrates containing compounds of the present invention formulated in accordance with Formulation Example 2 were uniformly applied to the soil surfaces at predetermined doses through a small sprayer after dilute with water. Three weeks after the application, the herbicidal effects against various plants were determined on the same evaluation scale as in Test Example 1.
as §3, §4

common ragweed [8] = test: as above; conditions: dose 3.2 g/a
Source text: as §13, §14, §3, §4

common lambsquater [9] = test: as above; conditions: dose 3.2 g/a
Source text: as §13, §14, §3, §4

water foxtail [10] = test: as above; conditions: dose 3.2 g/a
Source text: as §13, §14, §3, §4

redroot pigweed [11] = test: as above; conditions: dose 3.2 g/a
Source text: as §13, §14, §3, §4

posumbu knotweed [12] = test: as above; conditions: dose 3.2 g/a
Source text: as §13, §14, §3, §4

giant foxtail [13] = test: as above; conditions: dose 3.2 g/a
Source text: as §13, §14, §3, §4

Italian ryegrass [14] = test: as above; conditions: dose 3.2 g/a
Source text: as §13, §14, §3, §4

common chickweed [15] = test: as above; conditions: dose 3.2 g/a
Source text: as §13, §14, §3, §4

barnyardgrass [16] = test: as above; conditions: dose 3.2 g/a
Source text: as §13, §14, §3, §4

large crabgrass [17] = test: Test Example 4: herbicidal effect in foliage treatment; conditions: dose 3.2 g/a, three weeks after the application
Source text: (§15) Test on the Herbicidal Effect in Foliage Treatment
as §14, with “chickweed,” for “chickweed”, “The boxes were placed in a greenhouse at 25 to 30° C. to grow the plants. After 14 days, emulsifiable” for “Emulsifiable”, “foliage” for “soil surfaces”, “diluted” for “dilute”
as §3, §4

velvetleaf = test: as above; conditions: dose 3.2 g/a, three weeks after the application
Source text: as §15
as §14, with “chickweed,” for “chickweed”, “The boxes were placed in a greenhouse at 25 to 30° C. to grow the plants. After 14 days, emulsifiable” for “Emulsifiable”, “foliage” for “soil surfaces”, “diluted” for “dilute”
as §3, §4

common ragweed [18] = test: as above; conditions: dose 3.2 g/a, three weeks after the application
Source text: as §15
as §14, with “chickweed,” for “chickweed”, “The boxes were placed in a greenhouse at 25 to 30° C. to grow the plants. After 14 days, emulsifiable” for “Emulsifiable”, “foliage” for “soil surfaces”, “diluted” for “dilute”
as §3, §4

common lambsquater [19] = test: as above; conditions: dose 3.2 g/a, three weeks after the application
Source text: as §15
as §14, with “chickweed,” for “chickweed”, “The boxes were placed in a greenhouse at 25 to 30° C. to grow the plants. After 14 days, emulsifiable” for “Emulsifiable”, “foliage” for “soil surfaces”, “diluted” for “dilute”
as §3, §4

water foxtail [20] = test: as above; conditions: dose 3.2 g/a, three weeks after the application
Source text: as §15
as §14, with “chickweed,” for “chickweed”, “The boxes were placed in a greenhouse at 25 to 30° C. to grow the plants. After 14 days, emulsifiable” for “Emulsifiable”, “foliage” for “soil surfaces”, “diluted” for “dilute”
as §3, §4

redroot pigweed [21] = test: as above; conditions: dose 3.2 g/a, three weeks after the application
Source text: as §15
as §14, with “chickweed,” for “chickweed”, “The boxes were placed in a greenhouse at 25 to 30° C. to grow the plants. After 14 days, emulsifiable” for “Emulsifiable”, “foliage” for “soil surfaces”, “diluted” for “dilute”
as §3, §4

posumbu knotweed [22] = test: as above; conditions: dose 3.2 g/a, three weeks after the application
Source text: as §15
as §14, with “chickweed,” for “chickweed”, “The boxes were placed in a greenhouse at 25 to 30° C. to grow the plants. After 14 days, emulsifiable” for “Emulsifiable”, “foliage” for “soil surfaces”, “diluted” for “dilute”
as §3, §4

giant foxtail [23] = test: as above; conditions: dose 3.2 g/a, three weeks after the application
Source text: as §15
as §14, with “chickweed,” for “chickweed”, “The boxes were placed in a greenhouse at 25 to 30° C. to grow the plants. After 14 days, emulsifiable” for “Emulsifiable”, “foliage” for “soil surfaces”, “diluted” for “dilute”
as §3, §4

Italian ryegrass [24] = test: as above; conditions: dose 3.2 g/a, three weeks after the application
Source text: as §15
as §14, with “chickweed,” for “chickweed”, “The boxes were placed in a greenhouse at 25 to 30° C. to grow the plants. After 14 days, emulsifiable” for “Emulsifiable”, “foliage” for “soil surfaces”, “diluted” for “dilute”
as §3, §4

beadstraw = test: as above; conditions: dose 3.2 g/a, three weeks after the application
Source text: as §15
as §14, with “chickweed,” for “chickweed”, “The boxes were placed in a greenhouse at 25 to 30° C. to grow the plants. After 14 days, emulsifiable” for “Emulsifiable”, “foliage” for “soil surfaces”, “diluted” for “dilute”
as §3, §4

common chickweed [25] = test: as above; conditions: dose 3.2 g/a, three weeks after the application
Source text: as §15
as §14, with “chickweed,” for “chickweed”, “The boxes were placed in a greenhouse at 25 to 30° C. to grow the plants. After 14 days, emulsifiable” for “Emulsifiable”, “foliage” for “soil surfaces”, “diluted” for “dilute”
as §3, §4

barnyardgrass [26] = test: as above; conditions: dose 3.2 g/a, three weeks after the application
Source text: as §15
as §14, with “chickweed,” for “chickweed”, “The boxes were placed in a greenhouse at 25 to 30° C. to grow the plants. After 14 days, emulsifiable” for “Emulsifiable”, “foliage” for “soil surfaces”, “diluted” for “dilute”
as §3, §4

transplanted rice = test: Test Example 1: preemergence treatment under submerged conditions, effect on crop; conditions: dose 2.52 g/a
Source text: as §5, §6, §7, §8, §9, §10, §11, §12, §3, §4

## CCOC(=O)N(c1ccccc1CN1OCC(C(F)(F)F)OC1=O)S(=O)(=O)C(F)(F)F (centres unmarked) [III-9]
Bulrush [1]
  B: bulrush, herbicidal effect (evaluation scale 0-5): 5 (mortality of 90% or above (nearly complete death))
Ducksalad [2]
  C: ducksalad, herbicidal effect (evaluation scale 0-5): 4 (mortality of at least 70% and less than 90%)
Barnyardgrass [3]
  A: barnyardgrass, herbicidal effect (evaluation scale 0-5): 4 (mortality of at least 70% and less than 90%)
Bulrush [4]
  B: bulrush, herbicidal effect (evaluation scale 0-5): 5 (mortality of 90% or above (nearly complete death))
Ducksalad [5]
  C: ducksalad, herbicidal effect (evaluation scale 0-5): 0 (mortality of less than 5% (almost ineffective))
Barnyardgrass [6]
  A: barnyardgrass, herbicidal effect (evaluation scale 0-5): 4 (mortality of at least 70% and less than 90%)
Large crabgrass [7]
  herbicidal effect, D: large crabgrass: 0 (mortality of less than 5% (almost ineffective))
Common ragweed [8]
  herbicidal effect, J: common ragweed: 0 (mortality of less than 5% (almost ineffective))
Common lambsquater [9]
  herbicidal effect, L: common lambsquater: 3 (mortality of at least 40% and less than 70%)
Water foxtail [10]
  herbicidal effect, G: water foxtail: 5 (mortality of 90% or above (nearly complete death))
Redroot pigweed [11]
  herbicidal effect, K: redroot pigweed: 0 (mortality of less than 5% (almost ineffective))
Posumbu knotweed [12]
  herbicidal effect, M: posumbu knotweed: 1 (mortality of at least 5% and less than 20%)
Giant foxtail [13]
  herbicidal effect, E: giant foxtail: 2 (mortality of at least 20% and less than 40%)
Italian ryegrass [14]
  herbicidal effect, H: Italian ryegrass: 0 (mortality of less than 5% (almost ineffective))
Common chickweed [15]
  herbicidal effect, N: common chickweed: 1 (mortality of at least 5% and less than 20%)
Barnyardgrass [16]
  herbicidal effect, A: barnyardgrass: 2 (mortality of at least 20% and less than 40%)
Large crabgrass [17]
  D: large crabgrass, herbicidal effect: 0 (mortality of less than 5% (almost ineffective))
velvetleaf
  I: velvetleaf, herbicidal effect: 3 (mortality of at least 40% and less than 70%)
Common ragweed [18]
  J: common ragweed, herbicidal effect: 0 (mortality of less than 5% (almost ineffective))
Common lambsquater [19]
  L: common lambsquater, herbicidal effect: 2 (mortality of at least 20% and less than 40%)
Water foxtail [20]
  G: water foxtail, herbicidal effect: 5 (mortality of 90% or above (nearly complete death))
Redroot pigweed [21]
  K: redroot pigweed, herbicidal effect: 0 (mortality of less than 5% (almost ineffective))
Posumbu knotweed [22]
  M: posumbu knotweed, herbicidal effect: 2 (mortality of at least 20% and less than 40%)
Giant foxtail [23]
  E: giant foxtail, herbicidal effect: 0 (mortality of less than 5% (almost ineffective))
Italian ryegrass [24]
  H: Italian ryegrass, herbicidal effect: 0 (mortality of less than 5% (almost ineffective))
beadstraw
  O: beadstraw, herbicidal effect: 3 (mortality of at least 40% and less than 70%)
Common chickweed [25]
  N: common chickweed, herbicidal effect: 3 (mortality of at least 40% and less than 70%)
Barnyardgrass [26]
  A: barnyardgrass, herbicidal effect: 0 (mortality of less than 5% (almost ineffective))
Transplanted rice
  a: transplanted rice, effect on crop (evaluation scale 0-5): 0 (mortality of less than 5% (almost ineffective))
